How the values were obtained:
HL-60 cells [1] = assay: viable cell count with Trypan Blue under a microscope; assay type: cell-based, human; conditions: final concentration 250 μM or 125 μM
Procedure: Agarobiose, agarotetraose, agarohexaose and agarooctaose (hereinafter, sometimes, these oligosuccharaides are referred to as agarooligosaccharides) obtained in Example 5 were dissolved in water at a concentration of 2.5 mM or 1.25 mM separately, and were sterilized by filtration. HL-60 cells were suspended in RPMI 1640 medium containing 10% fetal bovine serum at a concentration of 2.5×10^5 cells/4.5 ml and to this suspension was added 0.5 ml of each of the oligosaccharide solutions. The resultant mixture were incubated with 5% CO2 at 37° C. for 24 hours or 48 hours. A part of the cell culture was taken up, followed by addition of Trypan Blue thereto and observing under a microscope to count the number of viable cells.
That is, FIG. 14 illustrates the relation between the incubation time and the number of viable cells when HL-60 cells were cultured with addition of one of the oligosaccharides at the final concentration of 250 μM. FIG. 15 illustrates the relation between the incubation time and the number of viable cells when HL-60 cells were cultured with addition of one of the oligosaccharides at the final concentration of 125 μM. In FIGS. 14 and 15, the horizontal axes represent the incubation time (hrs.) and the vertical axes represent the number of viable cells (× 10^5/5 ml). The closed circle (●) represents the addition of water (control), the open diamond (⋄) represents the addition of agarobiose, the open circle (◯) represents the addition of agarotetraose, the open triangle (Δ) represents the addition of agarohexaose and the open square (□) represents the addition of agarooctaose.

A549 = assay: antiproliferation assay, MTT method; assay type: cell-based, human
Procedure: (§1) Each fraction was sterilized by filtration and its 10 μl portion was placed in a well of a 96 well microtiter plate. […] The cell morphology was observed under an optical microscope. […] The absorbance at 590 nm was measured to determine a cell proliferation rate. (2) A 50 mM solution of agarobiose, agarotetraose or agarohexaose obtained in Example 3-(1) was sterilized by filtration and diluted 2-, 4-, 8-, 16-, 32-, 64- and 128-folds with sterilized water. […] [table] The number in Table 3 represents the dilution rate of the dilution added to the group whose absorbance at 590 nm was less than one-half of that of the control group to which water was added. […] Then, for agarobiose, agarotetraose and agarohexaose, the concentrations required for 50% proliferation inhibitory rate (IC50) are calculated based on the change in the absorbance at 590 nm, and are shown in Table 4.

MKN45 = assay: antiproliferation assay, MTT method; assay type: cell-based, human
Procedure: as §1

T24 = assay: antiproliferation assay, MTT method; assay type: cell-based, human
Procedure: as §1

HepG2 = assay: antiproliferation assay, MTT method; assay type: cell-based, human
Procedure: as §1

HT-29 = assay: antiproliferation assay, MTT method; assay type: cell-based, human
Procedure: as §1

HCT116 = assay: antiproliferation assay, MTT method; assay type: cell-based, human
Procedure: as §1

RPMI1788 = assay: antiproliferation assay, MTT method; assay type: cell-based, human
Procedure: as §1

HeLa S3 = assay: antiproliferation assay, MTT method; assay type: cell-based, human
Procedure: as §1

WiDr = assay: antiproliferation assay, MTT method; assay type: cell-based, human
Procedure: as §1

MCF7 = assay: antiproliferation assay, MTT method; assay type: cell-based, human
Procedure: as §1

T-47D = assay: antiproliferation assay, MTT method; assay type: cell-based, human
Procedure: as §1

HL-60 cells [2] = assay: antiproliferation assay, MTT method, absorbance at 590 nm; assay type: cell-based, human; conditions: HL-60
iNOS = iNOS expression by western blotting and RT-PCR; assay type: cell-based; conditions: protein level by western blotting, messenger RNA level by RT-PCR
Procedure: The confirmation was carried out at protein level by western blotting and at messenger RNA level by RT-PCR. That is, the compounds used in the present invention are useful for treating and preventing diseases that require inhibition of NO production by inhibiting expression of iNOS which is overexpressed by various factors to produce excess NO.

RAW264.7 = assay: antiproliferation assay, MTT method; assay type: cell-based, mouse
Procedure: as §1

A-172 = assay: antiproliferation assay, MTT method; assay type: cell-based
Procedure: as §1

HT-1080 = assay: antiproliferation assay, MTT method; assay type: cell-based
Procedure: as §1

[3] = dilution rate 1 corresponds to 5 mM in medium
[4] = read-out: IC50 (concentration required for 50% proliferation inhibitory rate)

## OC[C@H]1O[C@@H](O[C@H]2[C@H]3OC[C@@H]2O[C@@H](O[C@H]2[C@@H](O)[C@@H](CO)O[C@@H](O[C@H]4[C@H]5OC[C@@H]4O[C@@H](O[C@H]4[C@@H](O)[C@@H](CO)O[C@@H](O[C@H]6[C@H]7OC[C@@H]6OC(O)[C@H]7O)[C@@H]4O)[C@H]5O)[C@@H]2O)[C@H]3O)[C@H](O)[C@@H](O)[C@H]1O (mixture of isomers) [Agarohexaose, agarohexaose]
HL-60 cells [1]
  apoptosis corpuscles: apoptosis corpuscles were observed
HL-60 cells [1]; 24 hours or 48 hours
  number of viable cells as compared with the group to which water was added: decreased
A549; [3]
  dilution rate of the dilution added to the group whose absorbance at 590 nm was less than one-half of that of the control group: 16
A549; [4]
  IC50: 279 µM
MKN45; [3]
  dilution rate of the dilution added to the group whose absorbance at 590 nm was less than one-half of that of the control group: 16
MKN45; [4]
  IC50: 166 µM
T24; [3]
  dilution rate of the dilution added to the group whose absorbance at 590 nm was less than one-half of that of the control group: 8
T24; [4]
  IC50: 365 µM
HepG2; [3]
  dilution rate of the dilution added to the group whose absorbance at 590 nm was less than one-half of that of the control group: 16
HepG2; [4]
  IC50: 430 µM
HT-29; [3]
  dilution rate of the dilution added to the group whose absorbance at 590 nm was less than one-half of that of the control group: 32
HT-29; [4]
  IC50: 144 µM
HCT116; [3]
  dilution rate of the dilution added to the group whose absorbance at 590 nm was less than one-half of that of the control group: 32
HCT116; [4]
  IC50: 136 µM
RPMI1788; [3]
  dilution rate of the dilution added to the group whose absorbance at 590 nm was less than one-half of that of the control group: 128
RPMI1788; [4]
  IC50: 22 µM
HeLa S3; [3]
  dilution rate of the dilution added to the group whose absorbance at 590 nm was less than one-half of that of the control group: 16
HeLa S3; [4]
  IC50: 334 µM
WiDr; [3]
  dilution rate of the dilution added to the group whose absorbance at 590 nm was less than one-half of that of the control group: 16
WiDr; [4]
  IC50: 334 µM
MCF7; [3]
  dilution rate of the dilution added to the group whose absorbance at 590 nm was less than one-half of that of the control group: 16
MCF7; [4]
  IC50: 238 µM
T-47D; [3]
  dilution rate of the dilution added to the group whose absorbance at 590 nm was less than one-half of that of the control group: 16
T-47D; [4]
  IC50: 158 µM
HL-60 cells [2]; 50 mM solution diluted 2- to 128-fold, dilution rate 1 corresponds to 5 mM in the cell culture medium
  dilution rate of the dilution added to the group whose absorbance at 590 nm was less than one-half of that of the control group: 64
HL-60 cells [2]; [4]
  IC50: 78 µM
iNOS
  inhibition of iNOS expression: inhibit this iNOS expression
RAW264.7; [3]
  dilution rate of the dilution added to the group whose absorbance at 590 nm was less than one-half of that of the control group: 32
RAW264.7; [4]
  IC50: 109 µM
A-172; [3]
  dilution rate of the dilution added to the group whose absorbance at 590 nm was less than one-half of that of the control group: 16
A-172; [4]
  IC50: 151 µM
HT-1080; [3]
  dilution rate of the dilution added to the group whose absorbance at 590 nm was less than one-half of that of the control group: 16
HT-1080; [4]
  IC50: 185 µM

Reference: patent publication US6911432B2, “Drugs, foods or drinks with the use of algae-derived physiologically active substances” (priority 1997, dated 2005)
